For test [1], the target named is T1, Sodium-dependent serotonin transporter (Homo sapiens, UniProt P31645). In words: Inhibitory activity of compound bound to streptavidin-conjugated quantum dots against human SERT transfected in HEK293 cells. The class given is cell-based.
Test [2] addresses T1, Sodium-dependent serotonin transporter. Description: Inhibitory activity against human SERT transfected in HEK293 cells. The class given is cell-based.

Each structure is given as a SMILES string. pIC50: −log10 of the molar value.

T1 sequence (P31645 whole entry): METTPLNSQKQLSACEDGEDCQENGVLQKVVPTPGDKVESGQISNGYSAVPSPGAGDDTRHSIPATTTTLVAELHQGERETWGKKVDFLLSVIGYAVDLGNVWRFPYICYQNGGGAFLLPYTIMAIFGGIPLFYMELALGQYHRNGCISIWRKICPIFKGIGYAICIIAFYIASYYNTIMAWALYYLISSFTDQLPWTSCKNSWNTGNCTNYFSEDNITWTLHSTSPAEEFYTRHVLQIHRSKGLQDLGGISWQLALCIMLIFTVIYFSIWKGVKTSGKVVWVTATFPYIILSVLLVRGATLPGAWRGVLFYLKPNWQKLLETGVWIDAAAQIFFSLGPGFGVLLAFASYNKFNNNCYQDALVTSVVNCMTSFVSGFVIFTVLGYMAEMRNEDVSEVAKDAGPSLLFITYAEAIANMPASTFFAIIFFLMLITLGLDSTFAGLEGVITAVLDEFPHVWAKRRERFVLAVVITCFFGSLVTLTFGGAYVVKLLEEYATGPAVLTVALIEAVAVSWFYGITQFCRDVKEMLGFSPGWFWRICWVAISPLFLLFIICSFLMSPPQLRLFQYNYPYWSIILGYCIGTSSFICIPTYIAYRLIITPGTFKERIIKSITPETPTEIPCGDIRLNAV

By pIC50 is commonly meant the negative decadic logarithm of the IC50, by convention in mol/L. High values mean a low IC50, low ones a high IC50. For the compound `NCCc1c[nH]c2ccc(OCCOCCOCCS)cc12`, the results for the pIC50 in test [1] and in test [2] were 4.00 and 3.94, respectively.
On to `O=C(CCCCC1SCC2NC(=O)NC21)NCCN1CC=C(c2c[nH]c3ccccc23)CC1` (centres undefined), for which the pIC50 is 7.52 in test [1] and 8.70 in test [2].

Source of the values: ChEMBL document CHEMBL1141947, “Inhibitors of the serotonin transporter protein (SERT): the design and synthesis of biotinylated derivatives of 3-(1,2,3,6-tetrahydro-pyridin-4-yl)-1H-indoles. High-affinity serotonergic ligands for conjugation with quantum dots” (Bioorg Med Chem Lett, 2005).
